Laboratory results: patent US20040127447A1, “Augmentation of K+ channel expression using adenoviral vectors” (priority 2002, published 2004)
Where two headings read alike, the source gives them in different places. Ends that are not written are not given here.

Columns and labels:
DASMC K+ current (IK) = assay: Whole-cell patch clamp of human DASMCs; format: cell-based; conditions: for IK at potentials close to the resting EM (-30 mV) / whole cell K+ current (IK): fresh human DASMC
Description: (§1) Current and voltage clamp technique, SMC isolation and pipette solutions were performed as previously described in Michelakis E D, et al. (2002) Circ Res. 90:1307-15. The response to O2, ETC inhibitors and the membrane permeable H2O2 analog, t-butyl hydrogen peroxide, were compared between DASMCs enzymatically dispersed from fresh DAs versus those maintained in tissue culture for 72 hours (either under normoxic or hypoxic conditions).
Cells were voltage clamped at a holding potential of −70 mV and currents were evoked by 10 mV steps to +50 mV using test pulses of 200 ms duration. Data were recorded and analyzed using pCLAMP 6.02 software (Axon Instruments, Foster City, Calif.). Current density was calculated (pA/pF) and plotted against voltage.

DASMC EM = assay: DASMC membrane potential EM (current clamp, DiBAC4(3)); format: cell-based, human
Description: as §1
DASMC EM was measured both using patch clamp technique in current clamp mode and noninvasively with DiBAC4(3) (20 μM, bis-barbituric acid oxonol), a potentiometric dye that increases green fluorescence upon depolarization. DiBAC4 loaded cells or intact DA rings were stimulated with multi-photon excitation at 740 nm and emission was measured in the green range, 505-530 nm. DASMCs were studied after culture in normoxic or hypoxic environment for 4-5 days. The acute change in EM that occurred in response to 4-AP (10 mM), KCL (80 mM) or a switch in PO2 from 40 to 120 mmHg was measured.

human DA rings = assay: H2O2 production in DA rings (AmplexRed, lucigenin chemiluminescence)
Description: DA rings were loaded with lucigenin 5 μM and placed in a 2 ml heated cuvette at 37° C. Counts were recorded using a Packard 1900CA Liquid Scintillation Analyzer.
H2O2, was measured using a specific, fluorometric AmplexRed® assay, as previously described in Michelakis E D, et al. (2002 ) Circ Res. 90:1307-15. An independent, specific measure of the candidate redox mediator, H2O2, was made using the one-step, fluorometric Amplex Red (Molecular Probes, Eugene, Oreg.) assay. The assay detects H2O2 using 10-acetyl-3,7-dihydroxyphenoxazine (Amplex Red reagent) a stable probe that, in the presence of horseradish peroxidase (HRP), reacts with H2O2 with a 1:1 stoichiometry to produce the highly fluorescent substance, resorufin. The assay was calibrated (FIG. 15) and found to be linear over the range of 0.25 to 5.0 μM. Freshly harvested DA rings were placed in a normoxic or a hypoxic solution containing AmplexRed and, after 20 minutes, fluorescence was recorded (excitation 530 nm, emission 590 nm), see FIG. 15.

[1] = tested on: human ductus arteriosus (DA) rings; assay: Human DA ring tension; conditions: for constriction of fresh human DA rings: hypoxia, 4-AP 1-10 mM, IBTx 200 nM
Description: DAs excised from 26 neonates with hypoplastic left heart syndrome during the Norwood procedure (age 9±2 days, 12 female, arterial PO2˜40 mmHg) were usedDAs were transported in iced saline, maintained in hypoxia and used within 1 hour. Ring tension was recorded as previously described in Michelakis E, et al. (2000) Lancet 356:134-7.
Optimal passive ring tension was determined to be 1 g, as defined by the maximal constriction to 80 mM KCl. Tension was recorded using a force transducer connected to a MacLab A-D convertor (AD Instruments, Toronto, Canada). Tension was recorded from rings bubbled with 95% N2 and 5% CO2 in Krebs' solution, to mimic in utero conditions (PO2 40 mmHg, pH 7.4, pCO2 40-50 mmHg). Normoxia was created by bubbling with 20%O2 and 5% CO2 (balance N2) resulting in PO2 150 mmHg, pH 7.4, and PCO2 40 mmHg. Optimal resting tension was previously found to be 1000 mg, as described in Michelakis E, et al. (2000) Lancet 356:134-7. To exclude the contribution of several endothelial-derived vasoactive substances, the Krebs' solution also contained meclofenamate 17 μM to inhibit PGHS and L-N^G-nitroarginine-methylester (L-NAME) 10^−5 M to inhibit NOS.

DASMC mitochondria = assay: Mitochondrial membrane potential in DASMCs (JC-1, TMRM); format: cell-based, human
Description: Mitochondrial membrane potential (Δψm) was measured using two independent and well-validated probes JC-1 and TMRM (tetramethyl rhodamine methyl ester), as previously described in Michelakis E D, et al. (2002) Circ Res. 90:1307-15.
First-passage cultured DASMC were loaded with either JC-1 (1 μM) or TMRM (20 nM) for 30 minutes (37° C.) at 37 C. Confocal images were obtained within 30 minutes using a Zeiss Axiovert 100M inverted microscope equipped with an Apochromat 40×1.2 water-corrected objective. Settings (amplifier gain, pin hole size and filter set) were kept constant between experiments.
[…]. JC-1 fluoresces in the red spectra in hyperpolarized mitochondria (high Δψm) and in the green spectra in depolarized mitochondria (low Δψm). KCl (40 mM) was used to clamp the plasmalemmal membrane potential in some experiments. […] TMRM binds the inner and outer aspects of the inner mitochondrial membrane and accumulates in the mitochondria at greater quantities than predicted by the Nernst equation. TMRM fluorescence red in proportion to ψm. A 488 nm Argon laser was used for excitation and the resultant red/green fluorescence was quantified in channels 1 and 2 using LP 560 nm and BP 505-530 nm filters, respectively. 8-bit images were collected with a laser loiter time of 4.48 μs/pixel. Pinholes yielded optical slices of 1 μm. Results are expressed as the ratio of red/green channel fluorescence.

PASMC K+ current (IK) = assay: Whole-cell patch clamp of PASMCs; format: cell-based; conditions: normoxic-saline rat PASMCs
Description: Fresh PASMC's were isolated from fourth division PA's by enzymatic dispersion and studied using conventional whole-cell patch-clamp technique at room temperature, as previously described in Archer S L, et al. (1998) J. Clin. Invest. 101:2319-30, and Michelakis E D, et al. (2001) Am. J. Physiol. Lung Cell Mol. Physiol. 280:L1138-47. All cells were voltage-clamped at a holding potential of −70 mV. Currents were evoked in stepwise fashion from −70 mV to +70 mV with test pulses of 200 ms. Whole-cell currents were divided by the capacitance of the cell, yielding current density. The pipette solution (intracellular) contained (mmol/L): KCl 134, KH2PO4 1.2, MgCl2 1.0, HEPES 5, pH 7.30, Na2ATP 5 and EGTA 5.

For `CC(C)(C)OO` [t-butyl-H2O2, t-butyl hydrogen peroxide], the “IK in freshly dispersed DASMCs” value (DASMC K+ current (IK); voltage clamp) was “inhibits”, the “EM of fresh hypoxic DASMCs” value (DASMC EM; current clamp) was “depolarizes” and the “depolarizing response in chronically normoxic DASMCs” value (DASMC EM; current clamp) was “lost”.
For `C=C(C)[C@H]1Cc2c(ccc3c2O[C@@H]2COc4cc(OC)c(OC)cc4[C@@H]2C3=O)O1` [rotenone], the H2O2 production (human DA rings) was “decreases”, the phenylephrine constriction [1] was “unaltered” and the “relaxation of chronically normoxic DA rings” value [1] was “no longer causes relaxation”. The “relaxation of the O2-preconstricted DA” value [1] was “relax”, the “ψm in DASMCs” value (DASMC mitochondria) was “depolarizes” and the “IK acutely suppressed by O2” value (DASMC K+ current (IK)) was “precisely restoring the current”. For the same compound, the “IK of DASMC from chronically normoxic DAs” value (DASMC K+ current (IK)) was “unresponsive”.
For antimycin, the phenylephrine constriction ([1]; DA rings) was “unaltered” and the “relaxation of the O2-preconstricted DA” value ([1]; normoxic DA rings) was “relax”.
`Nc1ccncc1` [4-AP, 4-aminopyridine] was tested, and the “constriction of fresh human DA rings” value [1] was “significantly constricts”, the “IK in N-S PASMCs” value (PASMC K+ current (IK)) was “reversible inhibition” and the “IK at potentials close to the resting EM (-30 mV)” value (DASMC K+ current (IK)) was “significant decreases”. For the same compound, the “whole cell K+ current (IK)” value (DASMC K+ current (IK)) was “significantly inhibit”, the “IK of DASMC from chronically normoxic DAs” value (DASMC K+ current (IK); returned to hypoxic conditions) was “unresponsive” and the “acute depolarization of ionically remodeled DASMCs” value (DASMC EM; chronically normoxic, returned acutely to hypoxia, 4-AP 10 mM) was “loose their ability to depolarize”.
For “iberiotoxin (QFTDVDCSVSKECWSVCKDLFGVDRGKCMGKKCRCYQ; ends and bridges not checked; cysteine pairing not given here; UniProt P24663 1-37, looked up) [IBTx]”, the “constriction of fresh human DA rings” value [1] was “does not”, the “IK at potentials close to the resting EM (-30 mV)” value (DASMC K+ current (IK)) was “minimal inhibition” and the “whole cell K+ current (IK)” value (DASMC K+ current (IK)) was “significantly inhibit”.
